Read-outs that look alike come from different tables or passages of the source.
How the values were obtained:
CB1 receptor [1] = test system: CB1 receptor; parameters: method as in Herance et al., 2011; details: knock-out n = 4, wild-type n = 4; period 40–60 min; ref Herance et al., 2011; cited from earlier work
CB1 receptor [2] = test system: CB1 receptor; parameters: method as in Horti et al., 2006; details: ref Horti et al., 2006; cited from earlier work
CB1 receptor [3] = molecular target: CB1 receptor; parameters: method as in Burns et al., 2007; Liu et al., 2007; details: ref Burns et al., 2007, Liu et al., read-out: affinity to the CB1 receptor, IC50; cited from earlier work
CB1 receptor [4] = experiment: [18F]MK-9470 PET in a CB1 receptor knock-out mouse and a wild-type mouse (re-analysis of the whole time course); type: in vivo
Description: (§1) Two mice, a CB1 receptor-deficient mouse, and a wild-type mouse, whose data acquisition is described in Miederer et al. ([2013]), were re-analyzed.
(§2) (A) Left: CB1 receptor knock-out mouse, right: wild-type mouse. Positron emission tomography (PET) images were summed from 40 to 60 min [injected radioactivity: 8.5 MBq (CB1^−/−) and 8.0 MBq (CB1^+/+), anaesthesia: 0.2 ml xylazine/ketamine, data acquisition: 60 min]. (B) Standardized volumes-of-interest (VOI) were drawn for the whole mouse brains (n = 2). Extracted radioactivity concentrations were normalized to the maximum radioactivity concentration in the wild-type mouse.

[5] = parameters: method as in Burns et al., 2007; Liu et al., 2007; details: ref Burns et al., 2007, Liu et al.; cited from earlier work
CB1 receptor [6] = details: human brain; ref Burns et al., 2007; cited from earlier work
CB1 receptor [7] = details: cited from earlier work
CB1 receptor [8] = molecular target: T1, CB1 receptor (Mus musculus, UniProt P47746); experiment: [18F]MK-9470 small animal PET of the mouse brain (%ID/ml, 40–60 min); type: in vivo, mouse (C57BL/6J); parameters: Six male C57BL/6J mice; from tissue; host or cells: brain of living male C57BL/6J mice (in vivo PET); details: for [^18F]MK-9470 %ID/ml: PET 40–60 min, mean ± SD
Excerpt: Six male C57BL/6J mice (21.5–28.1 g, 6–9 weeks of age; obtained from the Translational Animal Research Center—TARC of the University Medical Center Mainz) were examined. All applicable international, national, and/or institutional guidelines for the care and use of animals were followed. This study was approved by the respective state authorities (Landesuntersuchungsamt Rheinland-Pfalz).
Isoflurane inhalation anesthesia (2% isoflurane vaporized in 60% oxygen) was used to immobilize the mice, which were positioned in the small animal PET scanner in the headfirst prone position. A venous catheter, which was placed in one of the tail veins, was used to inject [^18F]MK-9470. Together with the injection, a 60-min PET measurement was started with a Focus 120 small animal PET scanner (Siemens/CTI, Knoxville, TN, USA). This small animal PET scanner has lutetium oxyorthosilicate detectors having a size of 1.5 × 1.5 × 10 mm^3 for coincidence detection of photons (time window: 6 ns). The resolution in the center of the field of view is ≤1.4 mm. As part of the quality control, a detector normalization and cross-calibration with a dose calibrator (VDC 404, Veenstra Instruments, Joure, Netherlands) were performed regularly. The PET data acquisition took place in the list mode data format.
The list-mode data, acquired for this study, were sorted into a sinogram matrix with frames of 3 × 20, 3 × 60, 3 × 120, 10 × 300 s (=19 frames). The data were reconstructed with filtered back-projection [ramp filter (cut-off = 0.5)] into a 128 × 128 matrix with 95 slices of 0.8 mm thickness (pixel size 0.87 × 0.87 mm^2). Corrections included detector dead time and random coincidences, which yielded images in the unit Bq/ml.
PET data were co-registered to the T2-weighted magnetic resonance image (MRI) template provided by the PMOD software (version 4.0, Zurich, Switzerland) based on the work of Ma et al. ([2005]) and Mirrione et al. ([2007]). […] The outcome parameter was calculated as %ID/ml = mean value of the radioactivity concentration (in the unit Bq/ml)/injected radioactivity (in the unit Bq) × 100% and included the 40–60 min acquisition interval for individual brain regions. All results were reported as mean ± standard deviation. A two-tailed paired t-test was used to compare means for VOI of different receptor densities and thus, four main comparisons were defined before the analyses: cerebellum vs. pons, caudate putamen vs. pons, cerebellum vs. hippocampus, and hippocampus vs. pons. The global significance level was αglobal = 0.05 and a Bonferroni correction yielded a local significance level of αlocal = 0.0125.
To facilitate the comparison between (quantitative, continuous) PET data and (qualitative) IHC data, the data were classified into four categories, namely no (−), low (+), mean (++) and high (+++) accumulation of the radioactivity concentration or immunohistochemical staining. The IHC data were classified based on visual inspections of the results and their descriptions in the literature sources. Statements such as “little or no,” “few” or “void” led to a classification of “–.” Statements like “low,” “some” or “weak” were classified as “+.” Descriptions like “network of CB1-immunoreactive fibers” or “intensely CB1 receptor-ir fiber meshwork” led to a rating of “++” and statements like “dense meshwork of fibers” or “very high concentration of CB1-immunoreactivity” were rated as “+++.” The PET data were classified based on the outcome parameter %ID/ml, ranging from mean values of 1.5–2.6 %ID/ml, and were subdivided into three categories. That is, signals within the interval 1.5–1.8 %ID/ml lead to a rating of “+.” Parameters within the interval 1.8–2.2 %ID/ml were rated as “++” and signals within the interval 2.2–2.6 %ID/ml were classified as “+++.” As there was no brain region devoid of a PET signal, the category “−” was omitted here.

CB1 receptor [9] = molecular target: T1, CB1 receptor; experiment: [18F]MK-9470 PET in a CB1 receptor knock-out mouse and a wild-type mouse (re-analysis of the whole time course); type: in vivo; parameters: Two mice, a CB1 receptor-deficient mouse, and a wild-type mouse; from tissue; host or cells: brain of a living wild-type mouse; the CB1-/- mouse serves as the receptor-free control; details: CB1 knock-out vs wild-type mouse
Description: as §1, §2

[10] = Tectum mesencephalic: colliculus inferior
[11] = Tectum mesencephalic: colliculus superior

T1 sequence (P47746 whole entry): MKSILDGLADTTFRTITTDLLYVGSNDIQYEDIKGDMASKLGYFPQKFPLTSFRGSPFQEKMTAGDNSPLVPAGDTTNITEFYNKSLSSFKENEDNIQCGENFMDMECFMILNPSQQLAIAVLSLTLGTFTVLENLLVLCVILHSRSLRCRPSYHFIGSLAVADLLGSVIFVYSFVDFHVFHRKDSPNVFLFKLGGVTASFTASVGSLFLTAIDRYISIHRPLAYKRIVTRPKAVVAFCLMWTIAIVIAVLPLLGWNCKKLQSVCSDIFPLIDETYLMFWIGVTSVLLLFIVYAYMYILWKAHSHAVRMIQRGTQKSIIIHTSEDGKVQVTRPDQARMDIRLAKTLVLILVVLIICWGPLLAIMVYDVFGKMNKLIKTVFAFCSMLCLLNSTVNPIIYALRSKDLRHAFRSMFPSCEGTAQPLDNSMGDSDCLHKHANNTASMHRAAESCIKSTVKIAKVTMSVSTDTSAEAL

For `[11CH3]Oc1ccc(-c2c(C#N)c(C(=O)NN3CCCCC3)nn2-c2ccc(Cl)cc2Cl)cc1` [[^11C]OMAR, 1–(2,4-dichlorophenyl)-4-cyano-5–(4-[^11C]methoxyphenyl)-N-(piperidin-1-yl)-1H-pyrazole-3-carboxamide], the “lower uptake in knock-out mice as compared to wild-type mice” value (CB1 receptor [1]) is listed as 50% and the “%ID/ml values in mouse brain regions” value (CB1 receptor [2]) is listed as 2.5–6 %ID/ml.

For `Cc1ccc(OC(C)(C)C(=O)N[C@@H](C)[C@@H](Cc2ccc(OCCF)cc2)c2cccc(C#N)c2)nc1` [[^18F]MK-9470, N-(1S,2S)-2–(3-cyanophenyl)-3–[4-(2-[^18F]fluoroethoxy)phenyl]-1-methylpropyl-2-methyl-2-[(5-methylpyridin-2-yl)oxy]propanamide], the IC50 (CB1 receptor [3]) is given as 0.7 nM.

For `Cc1ccc(OC(C)(C)C(=O)N[C@@H](C)[C@@H](Cc2ccc(OCC[18F])cc2)c2cccc(C#N)c2)nc1` [[^18F]MK-9470, N-(1S,2S)-2–(3-cyanophenyl)-3–[4-(2-[^18F]fluoroethoxy)phenyl]-1-methylpropyl-2-methyl-2-[(5-methylpyridin-2-yl)oxy]propanamide], the “level of the unspecific signal in the CB1 receptor knock-out mouse, of the maximum signal measured in the wild-type mice” value (CB1 receptor [4]; whole brain VOI, n = 2) is given as “about 20%”, the “unspecific binding, of the signal present in a wild-type mouse” value (CB1 receptor [4]; whole brain, period of 40–60 min) is given as “approximately 20%” and the “lipophilicity, logD7.3” value [5] is given as 4.7. The “time to plateau after injection” value (CB1 receptor [6]) was “approximately 120 min”, the “time to plateau after injection” value (CB1 receptor [7]; rat brain, ref Casteels et al., 2012) was “approximately 300 min” and the “portion of the signal allocated to unspecific binding” value (CB1 receptor [7]; rats, receptor blocking with rimonabant before PET, ref Miederer et al., 2013) was 58%. For the same compound, the “Category of [^18F]MK-9470 accumulation” value (CB1 receptor [8]; Amygdala) was “++ (Parameters within the interval 1.8–2.2 %ID/ml were rated as “++”)”, the “[^18F]MK-9470 %ID/ml” value (CB1 receptor [8]; Amygdala) was 1.87 ± 0.38 %ID/ml and the “Category of [^18F]MK-9470 accumulation” value (CB1 receptor [8]; Basal forebrain septum) was “++ (Parameters within the interval 1.8–2.2 %ID/ml were rated as “++”)”. For the same compound, the “[^18F]MK-9470 %ID/ml” value (CB1 receptor [8]; Basal forebrain septum) was 2.07 ± 0.29 %ID/ml, the “Category of [^18F]MK-9470 accumulation” value (CB1 receptor [8]; Basal ganglia: caudate putamen) was “+++ (signals within the interval 2.2–2.6 %ID/ml were classified as “+++.”)” and the “[^18F]MK-9470 %ID/ml” value (CB1 receptor [8]; Basal ganglia: caudate putamen) was 2.33 ± 0.40 %ID/ml. For the same compound, the “Category of [^18F]MK-9470 accumulation” value (CB1 receptor [8]; Brain stem) was “++ (Parameters within the interval 1.8–2.2 %ID/ml were rated as “++”)”, the “[^18F]MK-9470 %ID/ml” value (CB1 receptor [8]; Brain stem) was 1.95 ± 0.36 %ID/ml and the “Category of [^18F]MK-9470 accumulation” value (CB1 receptor [8]; Cerebellum (whole region)) was “++ (Parameters within the interval 1.8–2.2 %ID/ml were rated as “++”)”. For the same compound, the “[^18F]MK-9470 %ID/ml” value (CB1 receptor [8]; Cerebellum (whole region)) was 2.11 ± 0.40 %ID/ml, the “Category of [^18F]MK-9470 accumulation” value (CB1 receptor [8]; Cerebral cortex) was “++ (Parameters within the interval 1.8–2.2 %ID/ml were rated as “++”)” and the “[^18F]MK-9470 %ID/ml” value (CB1 receptor [8]; Cerebral cortex) was 1.92 ± 0.32 %ID/ml. The “Category of [^18F]MK-9470 accumulation” value (CB1 receptor [8]; Hippocampus) was “+++ (signals within the interval 2.2–2.6 %ID/ml were classified as “+++.”)”, the “[^18F]MK-9470 %ID/ml” value (CB1 receptor [8]; Hippocampus) was 2.29 ± 0.41 %ID/ml and the “Category of [^18F]MK-9470 accumulation” value (CB1 receptor [8]; Hypothalamus) was “++ (Parameters within the interval 1.8–2.2 %ID/ml were rated as “++”)”. The “[^18F]MK-9470 %ID/ml” value (CB1 receptor [8]; Hypothalamus) was 1.99 ± 0.34 %ID/ml, the “Category of [^18F]MK-9470 accumulation” value (CB1 receptor [8]; Mesencephalon (whole region)) was “+++ (signals within the interval 2.2–2.6 %ID/ml were classified as “+++.”)” and the “[^18F]MK-9470 %ID/ml” value (CB1 receptor [8]; Mesencephalon (whole region)) was 2.41 ± 0.42 %ID/ml. For the same compound, the “Category of [^18F]MK-9470 accumulation” value (CB1 receptor [8]; Olfactory bulb) was “+ (signals within the interval 1.5–1.8 %ID/ml lead to a rating of “+.”)”, the “[^18F]MK-9470 %ID/ml” value (CB1 receptor [8]; Olfactory bulb) was 1.47 ± 0.08 %ID/ml and the “Category of [^18F]MK-9470 accumulation” value (CB1 receptor [8]; Substantia grisea centralis) was “+++ (signals within the interval 2.2–2.6 %ID/ml were classified as “+++.”)”. For the same compound, the “[^18F]MK-9470 %ID/ml” value (CB1 receptor [8]; Substantia grisea centralis (central gray)) was 2.56 ± 0.39 %ID/ml, the “Category of [^18F]MK-9470 accumulation” value (CB1 receptor [8]; [10]) was “+++ (signals within the interval 2.2–2.6 %ID/ml were classified as “+++.”)” and the “[^18F]MK-9470 %ID/ml” value (CB1 receptor [8]; [10]) was 2.48 ± 0.35 %ID/ml. For the same compound, the “Category of [^18F]MK-9470 accumulation” value (CB1 receptor [8]; [11]) was “+++ (signals within the interval 2.2–2.6 %ID/ml were classified as “+++.”)”, the “[^18F]MK-9470 %ID/ml” value (CB1 receptor [8]; [11]) was 2.44 ± 0.37 %ID/ml and the “Category of [^18F]MK-9470 accumulation” value (CB1 receptor [8]; Thalamus) was “+++ (signals within the interval 2.2–2.6 %ID/ml were classified as “+++.”)”. The “[^18F]MK-9470 %ID/ml” value (CB1 receptor [8]; Thalamus) was 2.34 ± 0.35 %ID/ml, the “Category of [^18F]MK-9470 accumulation” value (CB1 receptor [8]; Whole-brain) was “++ (Parameters within the interval 1.8–2.2 %ID/ml were rated as “++”)” and the “[^18F]MK-9470 %ID/ml” value (CB1 receptor [8]; Whole-brain) was 2.19 ± 0.35 %ID/ml. The “range of mean values of %ID/ml over brain regions” value (CB1 receptor [8]; all brain regions, 40–60 min) was 1.5–2.6 %ID/ml, the “coefficients of variation for all brain regions” value (CB1 receptor [8]; summed images 40–60 min) was 5–20% and the “kinetics in the mouse brain” value (CB1 receptor [8]; whole brain time course, 60 min) was “slow kinetics”. The “time of uptake into the mouse brain after injection” value (CB1 receptor [8]; whole brain, i.v. tail vein) was at most 5 min, the “coefficient of variation of whole-brain radioactivity concentration” value (CB1 receptor [8]; whole brain, interval from maximum to end of acquisition) was “approximately 12%” and the “mean value of radioactivity concentration after reaching maximum” value (CB1 receptor [8]; whole mouse brain, from maximum until the end of the acquisition (60 min)) was “approximately 2.2 %ID/ml”. The “binding to CB1 receptors in the mouse brain” value (CB1 receptor [9]) was “binds specifically”.

Reference: PMC7714830, “Quantification of the Cannabinoid Type 1 Receptor Availability in the Mouse Brain” (Frontiers in Neuroanatomy, 2020)
